Test results: patent publication US6562829B1, “Treatment of hepatic cirrhosis” (Hadasit Medical Research Services & Development Co., Ltd., priority 1997, dated 2003)
Like-named read-outs stand apart in the source and are kept apart here.

Experiments:
[1] = system: dimethylnitrosamine-induced hepatic fibrosis; test: Dimethylnitrosamine-induced severe liver fibrosis in rats (Example 1); format: in vivo
Protocol: The experimental method was as follows. Male Sprague-Dawley rats were divided into four groups. Two groups were injected intraperitoneally with 1% dimethylnitrosamine in saline for three consecutive days per week for 3 weeks, at a dose of 1 ml/kg body weight. This dosage regimen will induce severe liver fibrosis. The other two groups of rats, control rats, were injected with saline. One group of dimethylnitrosamine-treated rats and one control group were fed Halofuginone in the diet at a dose of 5 mg/kg weight of diet, starting three days before the dimethylnitrosamine injections were administered. At the end of the experimental period, the rats were sacrificed and the liver was removed and weighed.
(§1) Liver samples were taken for histological examination. Briefly, the tissue samples were collected into phosphate-buffered saline (PBS) and fixed overnight in 4% paraformaldehyde in PBS at 4° C. Serial 5 μm sections were prepared after the samples had been dehydrated in graded ethanol solutions, cleared in chloroform and embedded in Paraplast. Differential staining of collagenous and non-collagenous proteins was performed with 0.1% Sirius red and 0.1% fast green as a counter-stain in picric acid. This procedure stains collagen red [Gascon-Barre, M., et al., J. Histochem. Cytochem., 37:377-381, 1989].
Liver samples were then hybridized with a probe for rat collagen α1(I) expression. For hybridization with the genetic probe, the sections were deparafinized in xylene, rehydrated through a graded series of ethanol solutions, rinsed in distilled water for 5 minutes and then incubated in 2×SSC at 70° C. for 30 minutes. The sections were then rinsed in distilled water and treated with pronase, 0.125 mg/ml in 50 mM Tris-HCl, 5 mM EDTA, pH 7.5, for 10 minutes. After digestion, the slides were rinsed with distilled water, post-fixed in 10% formalin in PBS and blocked in 0.2% glycine. After blocking, the slides were rinsed in distilled water, rapidly dehydrated through graded ethanol solutions and air-dried for several hours. Before hybridization, the 1600 bp rat collagen α1(I) insert was cut out from the original plasmid, pUC18, and inserted into the pSafyre plasmid. The sections were then hybridized with this probe after digoxigenin-labeling [M. Pines et al., Matrix Biology, 14:765-71, 1996].

[2] = system: TAA-induced liver cirrhosis; format: in vivo, rat
Protocol: (§2) Male Sprague-Dawley rats were divided into three groups. Two groups were injected intraperitoneally with TAA twice weekly for 12 weeks, at a dose of 200 mg/kg body (Muller, A. et al., Exp. Pathol., 34:229-236, 1988; Hori, N. et al., Dig. Dis. Sci., 38:2195-2202, 1993). […] The other group of rats, control rats, was injected with saline. One group of TAA-treated rats and one control group were fed Halofuginone in the diet at a dose of 5 ppm.
For this experiment, rats in group 1 received only Halofuginone (n=4); rats in group 2 received TAA alone without Halofuginone (n=6); and rats in group 3 received TAA with Halofuginone (n=6). Groups 1and 3 received Halofuginone starting three days before the TAA injections were administered. At the end of the experimental period, the rats were sacrificed and the liver was removed and weighed.
as §1
In addition, the livers were scored in a double-blind evaluation, on a scale of 0-4, for the appearance of fibrotic tissue.

collagen type I = details: as demonstrated in U.S. Pat. No. 5,449,678; cited from earlier work
[3] = system: mild dimethylnitrosamine-induced fibrosis; test: Mild dimethylnitrosamine-induced fibrosis in rat liver (Example 2); format: in vivo; details: 4 weeks
Protocol: The specific experimental method used was similar to that of Example 1, except that the dimethylnitrosamine-treated rats were only given 0.25% dimethylnitrosamine in saline, a much lower dose than that given in Example 1 above. Also, the duration of treatment was longer before the rats were sacrificed: 4 weeks as opposed to 3 weeks in Example 1.
The expression of the collagen α1(I) gene was measured as described in Example 1 above. For hydroxyproline analysis, liver samples were hydrolyzed for 22 hours at 110° C. with 6 N HCl. Nitrogen was determined after Kjeldahl digestion by the spectrophotometric procedure using an autoanalyzer as described by Krom [M. D. Krom, Analyst, 105:305-16, 1980]. The collagen-unique amino acid hydroxyproline from the same hydrolysate was determined by amino acid analysis (Biotronik LC 5000, Germany) after post-column derivatization on a cation exchange column (BTC 2710, Biotronik). The results are expressed as the percentage of collagen in total liver proteins.

stellate cells [4] = test: Smooth muscle actin in stellate cells, TAA treatment experiment (Example 5); format: in vivo, rat; details: Halofuginone administered after induction of liver cirrhosis by TAA
Description: (§3) Liver cirrhosis was induced with TAA as previously described. […] These cells are located in the subendothelial space, between the apical membrane of hepatocytes and the ablumenal side of the sinusoidal endothelial cells. The intimate association between the stellate cells and the neighboring cell types facilitates intercellular transport and paracrine stimulation by soluble mediators. In injured liver, these cells acquire features of myofibroblasts and express smooth muscle cytoskeletal markers such as smooth muscle actin. […] The experimental method was as follows.
(§4) Rats were treated with TAA alone or TAA with Halofuginone as previously described in Example 4 for the use of Halofuginone as both a prophylactic treatment and a treatment for existing liver cirrhosis. Tissue samples were also prepared as previously described, except that rather than undergoing staining for collagen, the samples were incubated with smooth muscle actin antibodies in a 1:1000 dilution, with detection performed by the Histomouse SP kit according to the instructions of the manufacturer (Zymed Laboratories Inc., San Francisco, Calif., USA).

[5] = system: TAA-induced liver cirrhosis; test: Treatment of existing TAA-induced liver cirrhosis in rats (Example 4); format: in vivo, rat
Protocol: as §2, §1
In addition, the livers were scored in a double-blind evaluation, on a scale of 0-4, for the appearance of fibrotic tissue. […]

[6] = system: bile duct ligation-induced fibrosis; format: in vivo, rat
Description: In addition to dimethylnitrosamine-induced liver fibrosis, a second model of liver fibrosis in rats is available. […] Tox., 15:449-453, 1995]. Thus, the particular advantage of the bile duct ligation model is that any protective treatments must directly protect the liver from the pathological changes induced by fibrosis, rather than indirectly altering the effects of the exogeneous substance which is used to cause liver fibrosis in the animal model. The experimental method was as follows.
Male Wistar rats, weighing 200-250 g, were divided into four experimental groups with 3 rats in each group. […] It should be noted that all animals in the first two groups underwent sham operations which included all steps of the actual surgical procedure, with the exception of the bile duct ligation itself. The third group had bile duct ligation surgery and was not given Halofuginone. The fourth group had bile duct ligation surgery and was given Halofuginone. The actual surgical procedure was essentially similar to that reported in the literature [Kountaras, J. et al., Br. J. Exp. Pathol., 65:305-311, 1984].
All animals were given drinking water ad libitum. Rats which were given Halofuginone were fed Halofuginone in the normal rat diet at a concentration of 5 mg per kg diet weight for one week before surgery and for the duration of the experimental period, which was either 3 or 7 days after the surgical operation. Rats were sacrificed at the end of the experimental period. Both collagen content (through Sirius red staining) and collagen α1(I) gene expression were measured as described above in Example 1. In addition, serum alkaline phosphatase, alanine aminotransferase and aspartate aminotransferase levels were measured […] by a Hitachi Auto-analyzer System of Boerringher-Mannheim.

stellate cells [7] = test: Smooth muscle actin in stellate cells, TAA prevention experiment (Example 5); format: in vivo, rat; details: prophylactic administration of Halofuginone with TAA
Description: as §3, §4

[8] = bile duct ligated rats fed Halofuginone vs bile duct ligation only
[9] = bile duct ligated rats, Halofuginone 5 mg per kg diet

Structure (SMILES): O=C(CC1NCCC[C@H]1O)Cn1cnc2cc(Br)c(Cl)cc2c1=O (some centres unmarked) [Halofuginone]
- toxicity (survival) ([1]; Halofuginone alone, 5 mg/kg diet, all six rats survived): no toxicity
- liver weight ([1]; rat, in vivo): 11 ± 1.5 g
- expression of collagen α1(I) gene in liver (in situ hybridization) ([1]; rats given 1% dimethylnitrosamine i.p. and Halofuginone 5 mg/kg diet, 3 weeks, compared to dimethylnitrosamine alone): marked reduction
- liver weight ([1]; rats given both Halofuginone and dimethylnitrosamine, dimethylnitrosamine alone 4.5 g and 5.0 g): 8.5 ± 1.7 g
- thickening of collagen bundles in liver (Sirius red staining) ([1]; rats given both dimethylnitrosamine and Halofuginone 5 mg/kg diet): markedly reduced
- rats died by the end of three weeks ([1]; rats given both dimethylnitrosamine and Halofuginone, four of six died with dimethylnitrosamine alone): one of the six
- reduction of fibrotic scores for liver ([2]; Halofuginone plus TAA vs TAA alone (prevention)): 43%
- effect on body weight ([2]; rat, in vivo): no effect
- effect on spleen weight ([2]; rat, in vivo): no effect
- thickening of collagen bundles in liver (Sirius red staining) ([2]; rats given both TAA (200 mg/kg i.p. twice weekly, 12 weeks) and Halofuginone 5 ppm in diet from three days before TAA): markedly reduced
- average double-blind liver fibrosis score ([2]; scale of 0-4, rats given both Halofuginone and TAA (prevention), TAA alone 2.16±0.7): 1.25±0.8
- synthesis of collagen type I in bone chondrocytes in vitro (collagen type I): inhibits
- increased collagen α1(I) gene expression in liver ([3]; 0.25% dimethylnitrosamine plus Halofuginone): abolished
- dimethylnitrosamine-induced increase in liver hydroxyproline concentration ([3]; 0.25% dimethylnitrosamine, Halofuginone in diet): completely inhibited
- pathological expression of smooth muscle actin by stellate cells (stellate cells [4]): significantly reduced
- thickening of collagen bundles in liver (Sirius red staining) ([5]; Halofuginone given for four weeks after twelve weeks of TAA): markedly reduced
- average double-blind liver fibrosis score ([5]; scale of 0-4, group 3, Halofuginone after twelve weeks TAA, TAA alone 2.16±0.7 (group 1) or 3.06±1.7 (group 2)): 1.18±1.6
- bile duct ligation-induced increase in collagen synthesis [6, 8]: significantly reduced
- bile duct ligation-induced increase in collagen α1(I) gene expression [6, 8]: significantly reduced
- serum alanine aminotransferase, higher in rats not given Halofuginone than in rats fed Halofuginone [6, 9]: 56%
- serum alkaline phosphatase in rats not given Halofuginone relative to rats fed Halofuginone [6, 9]: 257%
- serum aspartate aminotransferase, higher in rats not given Halofuginone than in rats fed Halofuginone [6, 9]: 15%
- pathological expression of smooth muscle actin by stellate cells (stellate cells [7]): prevented
